From ChEMBL document CHEMBL1201862, “PubChem BioAssay data set” (2004)
Active and inactive are the calls of the source.

Assays:
Aminopeptidase N = target: T1, Aminopeptidase N (Plasmodium falciparum FcB1/Columbia, UniProt O96935); experiment: malaria alanyl aminopeptidase activity blockers – biochemical, fluorogenic H-Leu-NHMec substrate, 1536-well (AID 1445); design: species or system Plasmodium falciparum 3D7, 3D7
T1 sequence (O96935 whole entry): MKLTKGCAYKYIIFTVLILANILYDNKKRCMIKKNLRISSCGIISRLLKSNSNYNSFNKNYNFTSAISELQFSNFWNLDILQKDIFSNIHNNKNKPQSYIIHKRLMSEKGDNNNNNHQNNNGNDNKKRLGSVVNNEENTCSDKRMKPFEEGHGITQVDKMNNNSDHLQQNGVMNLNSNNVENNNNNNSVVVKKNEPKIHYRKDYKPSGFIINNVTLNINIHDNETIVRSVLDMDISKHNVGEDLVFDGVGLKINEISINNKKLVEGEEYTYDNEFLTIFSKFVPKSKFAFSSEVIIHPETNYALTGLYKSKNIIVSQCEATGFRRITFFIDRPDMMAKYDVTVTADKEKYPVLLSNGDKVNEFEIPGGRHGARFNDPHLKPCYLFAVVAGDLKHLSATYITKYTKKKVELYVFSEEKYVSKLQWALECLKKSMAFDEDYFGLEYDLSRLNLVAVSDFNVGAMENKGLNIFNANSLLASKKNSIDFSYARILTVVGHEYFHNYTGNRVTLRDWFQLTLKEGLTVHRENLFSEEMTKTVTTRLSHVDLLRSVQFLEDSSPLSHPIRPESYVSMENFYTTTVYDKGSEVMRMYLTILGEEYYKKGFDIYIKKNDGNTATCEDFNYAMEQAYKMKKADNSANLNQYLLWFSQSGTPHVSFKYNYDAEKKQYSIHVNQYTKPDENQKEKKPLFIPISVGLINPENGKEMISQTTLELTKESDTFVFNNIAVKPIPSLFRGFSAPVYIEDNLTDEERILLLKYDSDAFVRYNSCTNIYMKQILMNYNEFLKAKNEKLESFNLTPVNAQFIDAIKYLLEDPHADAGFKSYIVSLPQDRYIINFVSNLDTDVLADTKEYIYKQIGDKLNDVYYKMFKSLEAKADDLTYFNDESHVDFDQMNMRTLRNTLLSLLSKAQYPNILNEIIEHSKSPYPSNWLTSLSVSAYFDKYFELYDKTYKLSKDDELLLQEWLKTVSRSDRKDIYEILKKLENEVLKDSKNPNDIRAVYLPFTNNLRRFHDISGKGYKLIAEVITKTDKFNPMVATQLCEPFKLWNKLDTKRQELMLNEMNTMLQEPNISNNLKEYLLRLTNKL

Aspartyl aminopeptidase = target: T2, Aspartyl aminopeptidase (Plasmodium falciparum 3D7, UniProt Q8I2J3); experiment: Counterscreen for inhibitors of M1 and M17 aminopeptidases: QFRET-based biochemical high throughput dose response assay for inhibitors of the Plasmodium falciparum M18 Aspartyl Aminopeptidase (PFM18AAP). [Related PubChem assays: 1619 (Screening assay (M17LAP inhibitors).), 1445 (Screening assay (M1AAP inhibitors).)]
T2 sequence (Q8I2J3 whole entry): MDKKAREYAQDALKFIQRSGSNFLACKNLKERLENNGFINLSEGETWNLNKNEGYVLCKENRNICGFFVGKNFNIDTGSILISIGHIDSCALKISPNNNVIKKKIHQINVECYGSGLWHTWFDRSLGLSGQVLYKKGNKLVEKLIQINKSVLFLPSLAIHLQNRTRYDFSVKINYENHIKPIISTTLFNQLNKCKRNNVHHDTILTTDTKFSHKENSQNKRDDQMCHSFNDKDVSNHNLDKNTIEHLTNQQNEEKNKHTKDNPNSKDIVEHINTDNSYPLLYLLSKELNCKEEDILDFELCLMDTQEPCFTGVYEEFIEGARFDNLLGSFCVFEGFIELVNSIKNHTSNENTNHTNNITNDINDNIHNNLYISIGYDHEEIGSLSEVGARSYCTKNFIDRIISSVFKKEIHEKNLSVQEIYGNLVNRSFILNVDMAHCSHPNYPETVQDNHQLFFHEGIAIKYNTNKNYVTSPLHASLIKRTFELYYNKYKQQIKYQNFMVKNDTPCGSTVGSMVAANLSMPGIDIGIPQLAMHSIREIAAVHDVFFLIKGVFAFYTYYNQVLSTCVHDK

Procathepsin L = Procathepsin L (Homo sapiens, UniProt P07711); experiment: CTSL1 protease inhibition – biochemical, QFRET, 1536-well, counter-screen for M1/M17 aminopeptidase inhibitor project, dose response (AID 2214)
Sequence of Procathepsin L (P07711 whole entry): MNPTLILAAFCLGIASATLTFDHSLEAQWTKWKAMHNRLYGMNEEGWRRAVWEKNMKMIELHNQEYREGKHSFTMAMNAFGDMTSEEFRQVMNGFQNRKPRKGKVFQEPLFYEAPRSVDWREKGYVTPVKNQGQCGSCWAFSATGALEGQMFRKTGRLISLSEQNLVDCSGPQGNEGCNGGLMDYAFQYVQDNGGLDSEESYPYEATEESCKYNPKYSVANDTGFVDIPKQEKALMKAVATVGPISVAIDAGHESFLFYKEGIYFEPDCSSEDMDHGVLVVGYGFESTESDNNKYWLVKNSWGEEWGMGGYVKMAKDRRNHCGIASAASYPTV

[1] = HIV-1 Vif–A3G interaction blockers – biochemical, TR-FRET, GST-Vif 1-94, biotin-A3G peptide, dose response retest, primary screen (AID 1117319); assay type: functional;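 note: TR-FRET signal of purified GST-Vif binding a biotinylated A3G peptide; inhibitors lower the FRET signal by blocking Vif and A3G binding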
[2] = target: Mitogen-activated protein kinase 10 (Homo sapiens, UniProt P53779); experiment: Dose response biochemical screening assay for inhibitors of c-Jun N-Terminal Kinase 3 (JNK3). [Related pubchem assays: 746 ]
Sequence of Mitogen-activated protein kinase 10 (P53779 whole entry): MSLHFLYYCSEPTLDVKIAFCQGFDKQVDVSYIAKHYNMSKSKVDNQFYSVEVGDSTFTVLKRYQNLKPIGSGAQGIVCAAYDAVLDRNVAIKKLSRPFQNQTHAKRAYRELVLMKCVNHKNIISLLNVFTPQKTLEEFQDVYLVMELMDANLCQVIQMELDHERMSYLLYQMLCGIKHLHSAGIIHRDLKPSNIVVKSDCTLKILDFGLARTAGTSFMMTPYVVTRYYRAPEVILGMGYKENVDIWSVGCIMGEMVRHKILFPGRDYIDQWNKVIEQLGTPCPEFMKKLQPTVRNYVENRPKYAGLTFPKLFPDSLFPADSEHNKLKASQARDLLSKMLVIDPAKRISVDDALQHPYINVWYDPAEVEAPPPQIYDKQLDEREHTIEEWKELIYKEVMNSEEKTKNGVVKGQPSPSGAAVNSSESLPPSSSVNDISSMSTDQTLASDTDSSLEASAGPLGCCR

[3] = viability loss in human Jurkat cells – cell-based, luminescence, cytotoxicity control for P. falciparum gametocyte viability project, dose response (AID 1117277); assay type: functional;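 note: potency reflects loss of cellular ATP meaning fewer viable cells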
[4] = viability inhibitors of stage V gametocytes – luminescence, dose response (AID 1117278); assay type: functional, cell-based;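 note: gametocytes exposed to compound for 24 hours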
[5] = target: T3, Aryl hydrocarbon receptor (Homo sapiens, UniProt P35869); experiment: Luminescence-based cell-based high throughput dose response assay for activators of the Aryl Hydrocarbon Receptor (AHR). [Related pubchem assays: 2796 (Primary screen (AHR activators in singlicate)), 2845 (Confirmation screen (AHR activators in triplicate)), 434939 (Counterscreen (PXR activators in triplicate)), 2804 (Summary (AHR activators))]; assay type: ADME
T3 sequence (P35869 whole entry): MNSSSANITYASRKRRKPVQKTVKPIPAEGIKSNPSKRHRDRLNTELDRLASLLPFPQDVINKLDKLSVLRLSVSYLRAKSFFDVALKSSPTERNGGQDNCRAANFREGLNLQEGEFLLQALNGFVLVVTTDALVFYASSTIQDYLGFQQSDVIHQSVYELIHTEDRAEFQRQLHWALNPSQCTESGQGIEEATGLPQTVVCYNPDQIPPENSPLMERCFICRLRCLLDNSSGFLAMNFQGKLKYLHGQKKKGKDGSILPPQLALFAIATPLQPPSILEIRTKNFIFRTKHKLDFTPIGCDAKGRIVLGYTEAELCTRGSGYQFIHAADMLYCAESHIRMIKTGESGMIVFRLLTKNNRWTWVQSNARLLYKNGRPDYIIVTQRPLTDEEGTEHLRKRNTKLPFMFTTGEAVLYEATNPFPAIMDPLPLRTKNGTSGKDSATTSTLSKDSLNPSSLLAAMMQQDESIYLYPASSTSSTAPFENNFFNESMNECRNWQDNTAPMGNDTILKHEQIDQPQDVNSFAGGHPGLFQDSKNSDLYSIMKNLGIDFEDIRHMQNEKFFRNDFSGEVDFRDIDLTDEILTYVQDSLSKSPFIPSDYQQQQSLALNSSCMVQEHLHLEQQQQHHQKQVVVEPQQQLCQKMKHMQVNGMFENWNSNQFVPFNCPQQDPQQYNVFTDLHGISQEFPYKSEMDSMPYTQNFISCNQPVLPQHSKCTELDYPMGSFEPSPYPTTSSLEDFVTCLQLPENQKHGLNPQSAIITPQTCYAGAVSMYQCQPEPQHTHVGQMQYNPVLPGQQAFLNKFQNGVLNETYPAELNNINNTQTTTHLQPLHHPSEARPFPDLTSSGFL

[6] = Trypanosoma cruzi growth suppression in host cells – NIH3T3 host cells, beta-gal luminescence, confirmation (AID 2044); assay type: functional, cell-based;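 note: intracellular parasites grown in NIH/3T3 mouse fibroblasts as host cells; luminescent beta-galactosidase reporter signal from transgenic T. cruzi replicating inside host cells; inhibitors lower the luminescence signal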
[7] = target: Sphingosine 1-phosphate receptor 2 (Homo sapiens, UniProt O95136); experiment: Dose Response Cell Based Assay for Antagonists of the S1P2 Receptor. [Related pubchem assays: 856, 736 ]; assay type: functional
Sequence of Sphingosine 1-phosphate receptor 2 (O95136 whole entry): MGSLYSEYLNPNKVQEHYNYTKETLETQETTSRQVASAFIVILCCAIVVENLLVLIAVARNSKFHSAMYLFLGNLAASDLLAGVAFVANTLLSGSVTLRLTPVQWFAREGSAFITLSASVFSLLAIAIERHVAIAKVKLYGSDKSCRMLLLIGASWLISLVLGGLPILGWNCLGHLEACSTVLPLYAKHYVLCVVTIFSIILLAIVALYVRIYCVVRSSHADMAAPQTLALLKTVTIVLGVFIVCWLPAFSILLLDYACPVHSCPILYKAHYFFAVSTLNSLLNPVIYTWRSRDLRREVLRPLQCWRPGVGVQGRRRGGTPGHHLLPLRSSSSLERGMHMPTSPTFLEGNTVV

[8] = NIH3T3 cell viability loss – ATP luminescence, mouse fibroblasts, counter-screen, dose response (AID 2010); assay type: functional, cell-based;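 note: cells exposed to compound for about 90 hours before reading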
Leucine aminopeptidase = target: T4, Leucine aminopeptidase (Plasmodium falciparum 3D7, UniProt Q8IL11); experiment: P. falciparum M17LAP inhibitors, primary screen, biochemical, fluorogenic H-Leu-NHMec substrate, 1536-well (AID 1619); assay type: functional
T4 sequence (Q8IL11 whole entry): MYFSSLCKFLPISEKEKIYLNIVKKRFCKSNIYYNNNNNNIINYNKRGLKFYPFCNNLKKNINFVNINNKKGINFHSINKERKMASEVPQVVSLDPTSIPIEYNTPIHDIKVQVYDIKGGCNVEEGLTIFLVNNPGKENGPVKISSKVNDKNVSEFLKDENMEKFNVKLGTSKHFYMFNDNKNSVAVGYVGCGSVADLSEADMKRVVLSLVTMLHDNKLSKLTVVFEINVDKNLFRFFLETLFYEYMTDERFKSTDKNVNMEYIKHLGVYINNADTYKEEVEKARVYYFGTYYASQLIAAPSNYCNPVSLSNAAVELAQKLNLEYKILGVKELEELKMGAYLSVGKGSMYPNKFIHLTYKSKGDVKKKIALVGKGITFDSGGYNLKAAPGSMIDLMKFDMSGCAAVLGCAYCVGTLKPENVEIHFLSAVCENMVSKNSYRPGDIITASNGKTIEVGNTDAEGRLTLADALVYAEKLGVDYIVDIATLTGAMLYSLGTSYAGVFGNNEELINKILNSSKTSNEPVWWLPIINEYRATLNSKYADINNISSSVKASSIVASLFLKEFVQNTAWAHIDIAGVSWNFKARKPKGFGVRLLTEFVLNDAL

[9] = system: Streptococcus sp. 'group A'; experiment: Streptococcus pyogenes SK(-)GAS viability under kanamycin – luminescence, BacTiterGlo, confirmation, counter-screen for streptokinase expression inhibitor project, dose response (AID 1900); assay type: functional, organism-based
Streptococcus = experiment: GAS UMAA2166 growth inhibition – luminescence, BacTiterGlo, counter-screen for streptokinase expression inhibitor project, dose response (AID 1915); assay type: functional, organism-based;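 note: potency for reduction of bacterial viability or growth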
Streptokinase A = target: T5, Streptokinase A (Streptococcus pyogenes serotype M1, UniProt P10520); experiment: viability-normalized secreted streptokinase activity reduction – plasminogen activation absorbance, OD405, dose response (AID 1914); assay type: functional, Streptococcus pyogenes M1 GAS;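 note: secreted streptokinase activity via plasminogen activation per viability signal from cell pellet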
T5 sequence (P10520 whole entry): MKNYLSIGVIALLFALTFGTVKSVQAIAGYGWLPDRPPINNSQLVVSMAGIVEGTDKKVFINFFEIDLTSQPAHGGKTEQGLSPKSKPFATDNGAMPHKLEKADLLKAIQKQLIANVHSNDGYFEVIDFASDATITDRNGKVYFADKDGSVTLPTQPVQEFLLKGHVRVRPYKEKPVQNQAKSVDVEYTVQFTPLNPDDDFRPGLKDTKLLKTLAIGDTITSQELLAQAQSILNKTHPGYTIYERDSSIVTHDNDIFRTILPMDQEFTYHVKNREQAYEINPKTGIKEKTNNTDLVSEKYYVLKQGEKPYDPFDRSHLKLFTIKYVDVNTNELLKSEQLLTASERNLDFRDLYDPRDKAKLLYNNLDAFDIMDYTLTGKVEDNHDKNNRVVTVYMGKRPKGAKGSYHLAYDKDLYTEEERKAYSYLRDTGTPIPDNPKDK

[10] = cytotoxicity toward Colo320 cells – cell-based, CellTiter-Glo luminescence, IC50, dose response (AID 1117334); assay type: functional; conditions: COLO 320
[11] = HCT116 cell viability decrease, GSK3B pretreatment – CellTiter-Glo, IC50, dose response (AID 1117339); assay type: functional; conditions: HCT-116
[12] = cytotoxicity toward HT-29 cells – cell-based, CellTiter-Glo luminescence, IC50, dose response (AID 1117330); assay type: functional
[13] = RKO cell viability reduction, dose response, CellTiter-Glo luminescence (AID 1117322); assay type: functional
[14] = cytotoxicity toward HCT116 cells – cell-based, CellTiter-Glo luminescence, IC50, dose response (AID 1117332); assay type: functional; conditions: HCT-116
[15] = CellTiter-Glo luminescence survival assay, SW480 colon tumor line, concentration-response curve, half-maximal inhibitory concentration (AID 1117338); assay type: functional
[16] = Reduced DLD-1 viability, concentration-response, CellTiter-Glo luminescence (AID 1117352); assay type: functional
[17] = SNU-C1 cell viability reduction, dose response, CellTiter-Glo luminescence (AID 1117323); assay type: functional, cell-based
[18] = HPDE-C7 pancreatic duct cell viability loss – fluorescence, HTS (AID 430); assay type: functional, cell-based; conditions: Homo sapiens
[19] = viability loss of HPDE-C7K cells – cell-based, fluorescence, HTS, primary screen (AID 431); assay type: functional; conditions: Homo sapiens

CC(C)(C)c1nc2ccccc2c(=O)n1N1C(=O)c2ccccc2C1=O
IC50 (Aminopeptidase N): 16.1 µM (active) | IC50 (Aspartyl aminopeptidase): > 73.5 µM (not active) | IC50 (Procathepsin L): > 59.6 µM (not active)

CCC(CC)c1nc2cc(OC)c(OC)cc2c(=O)o1
IC50 [1]: > 100 µM (active)

Cc1cc(NC(=O)CSC2=Nc3ccccc3C3=NC(Cc4ccccc4)C(=O)N23)[nH]n1 (stereo not given)
IC50 [2]: 11.3 µM (not active)

Cc1cc(C)cc(N2CC(C(=O)O)CC2=O)c1 (stereo not given)
IC50 [3]: > 83.4 µM (inactive) | IC50 [4]: > 109 µM (inactive)

COc1ccccc1NC(=O)c1ccc(C(=O)Nc2ccccc2OC)nc1
EC50 [5]: 0.0686 µM (active)

Cn1c(-c2c(N)n(CCCc3ccccc3)c3nc4ccccc4nc23)nc2ccccc21
EC50 [6]: 1.17 µM (active) | IC50 [7]: 8 µM (active) | EC50 [8]: > 30 µM (not active)

O=C(Cc1ccc(-c2ccccc2)cc1)NC1CCCC1
IC50 [3]: > 83.2 µM (inactive) | IC50 [4]: > 109 µM (inactive)

COC(=O)c1c(C#N)c(N)nc2c1CCCC2
IC50 [2]: 60.1 µM (not active)

Cn1c(O)cc(=O)nc1SCC(=O)Nc1cccc2ccccc12
IC50 (Aspartyl aminopeptidase): > 73.5 µM (not active) | IC50 (Leucine aminopeptidase): 7.59 µM (active) | EC50 [9]: > 150 µM (not active) | IC50 (Procathepsin L): > 59.6 µM (not active) | EC50 (Streptococcus): 24.8 µM (active) | EC50 (Streptokinase A): > 150 µM (not active)

CCC=CCC=CCC=CCCCCCCCC(=O)O
IC50 [10]: > 20 µM (inactive) | IC50 [11]: > 20 µM (inactive) | IC50 [12]: > 20 µM (inactive) | IC50 [13]: > 20 µM (inactive) | IC50 [14]: > 20 µM (inactive) | IC50 [15]: > 20 µM (inactive) | IC50 [16]: > 20 µM (inactive) | IC50 [17]: > 20 µM (inactive)

O=c1c2ccccc2[nH]c(=S)n1CCN1CCC(=C(c2ccc(F)cc2)c2ccc(F)cc2)CC1 [DIACYLGLYCEROL KINASE INHIBITOR II]
EC50 [18]: 3.94 µM (active) | EC50 [19]: 4.21 µM (active)
